Among the data in patent publication US7074801B1, “Nitrogen-containing condensed cyclic compound having a pyrazolyl group as a substituent group and pharmaceutical composition thereof” (Eisai Co., Ltd., priority 2001, dated 2006) are IC50 values, retold here.

Each structure is given as a SMILES string. Counter-ions that a name gives are not always drawn. Like-named read-outs stand apart in the source and are kept apart here.

The test system of this test is STAT6. Description: Inhibitory test on STAT6 activation: IL-4-induced alkali phosphatase STAT6 reporter in 293 cells stably expressing the STAT6 gene and STAT6 reporter gene. Conditions: HEK293, 1 ng/ml human recombinant IL-4, 16 hours, 293 cells with STAT6 reporter, read-out: Inhibitory activity IC50 (concentration at which the alkali phosphatase activity induced by IL-4 was inhibited by 50%). The test is classed as cell-based. As to the method: The inhibitory action of the present compound on activation of STAT6 was evaluated according to the following experiments.
1) Construction of a STAT6 Reporter Gene
An oligonucleotide of SEQ ID NO:1 in which three STAT6-binding regions on a human immunoglobulin germline E gene promoter had been linked was mixed with its complementary chain, thermally denatured and annealed, and 5′- and 3′-ends thereof were cleaved with restriction enzymes Kpn I (Code No. 1068A, Takara Shuzo) and Xba I (Code No. 1093A, Takara Shuzo) respectively, and the resulting fragment was cloned into a Kpn I/Xba I site of pUG-BGH-PLAP vector (described in Molecular Pharmacology, 49:860–873, 1996). To induce a basic transcriptional factor, a TK promoter region of herpes virus was cloned into an Xba I/Hind III (Code No. 1060A, Takara Shuzo) site of the pUG-BGH-PLAP vector. To obtain a stably expressing cell strain, a neomycin resistance gene (PGK-neo expression cassette) was integrated with an Sal I (Code No. 1080A, Takara Shuzo) of this vector. Cloning of the TK promoter and PGK-neo expression cassette was carried out according to Molecular Pharmacology, 49:860–873, 1996.
The underlined sites are a Kpn I recognition site and Xba I recognition site respectively. 2) Construction of an STAT6 Expression Vector
An oligonucleotide of SEQ ID NO:2 containing an initiation codon of STAT6 gene and an oligonucleotide of SEQ ID NO:3 containing a stop codon were used, and total RNA was prepared from human peripheral blood cells by using RNeasy Mini kit (Code No. 74104, OIAGEN). Then, cDNA was prepared by reverse transcription reaction using Takara RNA LA PCR kit (Code No. RR012A, Takara Shuzo) and then subjected to PCR reaction with primers of SEQ ID NOS:2 and 3, to amplify the STAT6 gene. • (SEQ ID NO:2) 5′-[…]-3′ The underlined site is an EcoR I recognition site. • (SEQ ID NO:3) 5′-[…]-3′ The underlined site is an Xho I recognition site.
The PCR product was digested with EcoR I (Code No. 1040A, Takara Shuzo) and Xho I (1094A, Takara Shuzo), and the digested fragment was isolated on an agarose gel. The isolated fragment was integrated into a vector fragment obtained by digesting pcDNA3.1 (+) (Code No. U790-20, Invitrogen) vector with EcoRI/Xho I.
3) Introduction of the Gene and Preparation of a Stably Expressing Cell Strain
Human fetal kidney-derived 293 cells (American Type Culture Collection), 3.0×10^5 cells, were spread on a Falcon tissue culture 6-well plate (Code No. 35-3046, Becton Dickinson) and cultured overnight. 1.5 μg of the prepared STAT6 reporter gene, 1.5 μg of the STAT6 gene and 20 μl of lipofectamine (Code No. 18324-012, GIBCO BRL) were mixed in 0.3 ml OPTI-MEM medium (Code No. 31985-070) and left at room temperature for 20 minutes. Thereafter, 1.2 ml OPTI-MEM medium was further added to the cells washed with OPTI-MEM medium not containing fetal bovine serum, and the cells were cultured for 2 hours. 1.5 ml medium containing fetal bovine serum was added thereto, and the cells were cultured for additional 19 hours. The medium was exchanged with a fresh one, and Geneticin (Code No. G-5013, SIGMA) was added at a concentration of 1 mg/ml, and the cells were cultured, and chemical-resistant cells were selected. The resulting chemical-resistant cells were floated in a medium containing 1 mg/ml Geneticin, then spread at a density of 0.5 cell/well on a 96-well microplate (Code No. 35-3072, Becton Dickinson) and cloned to give a clone expressing alkali phosphatase in response to IL-4.
4) Inhibitory Test on STAT6 Activation
The cells stably expressing the STAT6 gene and STAT6 reporter gene and expressing alkali phosphatase in response to IL-4 were spread at a density of 5000 cells/180 μl/well on a 96-well microplate (Code No. 35-3072, Becton Dickinson) and cultured overnight. […]
In general terms: A reporter such as luciferase makes a cellular process visible.

In the case of `Fc1ccc(-c2n[nH]cc2-c2ccc3ncnc(-c4nnc(C5CC5)o4)c3c2)c(F)c1` [Example 907, 4-(5-Cyclopropyl[1,3,4]oxadiazol-2-yl)-6-[3-(2,4-difluorophenyl)-1H-pyrazol-4-yl] quinazoline], the IC50 (Table 2) was in the range of 10 to 100 nM.

On to `O=C(Nc1nc2ccc(OC(F)(F)F)cc2s1)c1ccc(-c2cnc3ccc(-c4cn[nH]c4)cn23)cc1F` [Example 670, N1-[6-(Trifluoromethoxy)-1,3-benzothiazol-2-yl]-2-fluoro-4-[6-(1H-4-pyrazolyl)imidazo[1,2-a]pyridin-3-yl]benzamide dihydrochloride], for which the IC50 (Table 1) was 10 to 100 nM.

Regarding `Fc1ccc(-c2n[nH]cc2-c2ccc3ncc(-c4nnc(C5CC5)o4)n3c2)c(F)c1` [Example 557, 3-(5-Cyclopropyl[1,3,4]oxadiazol-2-yl)6-[3-(2,4-difluorophenyl)-1H-pyrazol-4-yl]imidazo[1,2-a]pyridine], the IC50 (Table 1) was below 10 nM.

Consider `Fc1ccc(-c2n[nH]cc2-c2ccc3ncc(-c4noc(C(F)F)n4)n3c2)c(F)c1` [Example 589, 6-[3-(2,4-Difluorophenyl)-1H-4-pyrazolyl]-3-(5-difluoromethyl-[1,2,4]oxadiazol-3-yl)-imidazo[1,2-a]-pyridine trihydrochloride], for which the IC50 (Table 1) was below 10 nM.

Turning to `Cc1ccc(S(=O)(=O)N2CCN(c3ncnc4ccc(-c5cn[nH]c5)cc34)CC2)cc1` [Example 971, 4-[4-(Toluene-4-sulfonyl)piperazin-1-yl]-6-(1H-pyrazol-4-yl)quinazoline di-trifluoroacetate], the IC50 (Table 2) was in the range of 100 to 1000 nM.

With `O=C(c1ccc(-c2n[nH]cc2-c2ccc3ncc(-c4ccccn4)n3c2)cc1)N1CCOCC1` [Example 115, Morpholino(4-{4-[3-(2-pyridyl)imidazo[1,2-a]pyridin-6-yl]-1H-3-pyrazolyl}phenyl)methanone], the IC50 (Table 1) was below 10 nM.

Turning to `N#Cc1ccc(-c2n[nH]cc2-c2ccc3ncc(-c4ccc(CN5CCC[C@H]5C(N)=O)s4)n3c2)cc1` [Example 109, (2S)-1-{[(5-{6-[3-(4-Cyanophenyl)-1H-4-pyrazolyl]imidazo-[1,2-a]pyridin-3-yl}-2-thienyl)methyl]tetrahydro-1H-2-pyrrolecarboxyamidetrihydrochloride], the IC50 (Table 1) is below 10 nM.

As for `Clc1ccccc1N1CCN(c2ncnc3ccc(-c4cn[nH]c4)cc23)CC1` [Example 287, 4-[4-(2-Chlorophenyl)piperazin-1-yl]-6-(1H-4-pyrazolyl)-quinazoline], where the note is “Table 1”, the IC50 lay within 10 to 100 nM.

On to `Fc1ccc(-c2n[nH]cc2-c2ccc3ncc(-c4noc(C5CC5)n4)n3c2)c(F)c1` [Example 576, 3-(5-Cyclopropyl-[1,2,4]oxadiazol-3-yl)-6-[3-(2,4-difluorophenyl)-1H-4-pyrazolyl]-imidazo[1,2-a]pyridine trihydrochloride], for which, for the setting “Table 1”, the IC50 is below 10 nM.

In the case of `Cc1n[nH]cc1-c1ccc2nccc(N3CCC(Oc4ccc(S(C)(=O)=O)cc4)CC3)c2c1` [Example 239, 6-(3-Methyl-1H-4-pyrazolyl)-4-{4-[4-(methylsulfonyl)-phenoxy]piperidino}quinoline dihydrochloride], for the setting “Table 1”, the IC50 was below 10 nM.

As to `Cc1n[nH]cc1-c1ccc2ncc(-c3ccc(C(=O)NCCc4ccccn4)c(F)c3)n2c1` [Example 648, N1-[2-(2-Pyridyl)ethyl]-2-fluoro-4-[6-(3-methyl-1H-4-pyrazolyl)imidazo[1,2-a]pyridin-3-yl] benzamide], the IC50 (Table 1) was 10 to 100 nM.

`c1nc(N2CCN(C3CCCCC3)CC2)c2cc(-c3cn[nH]c3)ccc2n1` [Example 957, 4-(4-Cyclohexylpiperazin-1-yl)-6-(1H-pyrazol-4-yl)quinazoline tri-trifluoroacetate]: the IC50 (Table 2) was in the range of 10 to 100 nM.

For the compound `CN(C)S(=O)(=O)c1ccc(N2CCN(c3ncnc4ccc(-c5cn[nH]c5)cc34)CC2)cc1` [Example 921, N,N-Dimethyl-4-{4-[6-(1H-pyrazol-4-yl)quinazolin-4-yl]piperazin-1-yl} benzene sulfonamide], the IC50 (Table 2) is below 10 nM.

With `CS(=O)(=O)c1ccc(-c2ncnc3ccc(-c4c[nH]nc4[N+](=O)[O-])cc23)s1` [Example 901, 4-(5-Methylsulfonylthiophen-2-yl)-6-(3-nitro-1H-pyrazol-4-yl) quinazoline], the IC50 (Table 2) is 100 to 1000 nM.

Regarding `COc1ccc(-c2ncnc3ccc(-c4c[nH]nc4-c4ccc(F)cc4)cc23)cc1` [Example 254, 6-[3-(4-Fluorophenyl)-1H-4-pyrazolyl]-4-[4-(methoxyphenyl)-quinazolinedihydrochloride], the IC50 (Table 1) lay within 10 to 100 nM.

Consider `Cc1ccc(C(=O)C(C)(C)NC(=O)c2ccc(-c3cnc4ccc(-c5cn[nH]c5)cn34)cc2F)c(F)c1` [Example 674, hydrochloride], for which, under “Table 1”, the IC50 was below 10 nM.

As for `O=C1CCc2cc(-c3cnc4ccc(-c5c[nH]nc5-c5ccc(F)cc5)cn34)ccc21` [Example 623, 5-{6-[3-(4-Fluorophenyl)-1H-4-pyrazolyl]imidazo[1,2-a]pyridin-3-yl}-1-indanone], where the note is “Table 1”, the IC50 is below 10 nM.

In the case of `CC(C)c1nc(-c2cnc3ccc(-c4c[nH]nc4-c4ccccc4F)cn23)no1` [Example 605, 6-[3-(2-Fluorophenyl)-1H-4-pyrazolyl]-3-(5-isopropyl-[1,2,4]oxadiazol-3-yl)-imidazo[1,2-a]pyridine trihydrochloride], the IC50 (Table 1) was below 10 nM.

Consider `O=S(=O)(c1ccc(-c2ncnc3ccc(-c4c[nH]nc4-c4ccc(F)cc4)cc23)s1)N1CCCC1` [Example 850, 6-[3-(4-Fluorophenyl)-1H-pyrazol-4-yl]-4-[5-(pyrrolidine-1-sulfonyl)thiophen-2-yl]quinazoline dihydrochloride], for which the IC50 (Table 2) fell in the range of 100 to 1000 nM.

As to `Fc1cccc(F)c1-c1n[nH]cc1-c1ccc2ncc(-c3noc(CCC(F)(F)F)n3)n2c1` [Example 601, 3-[5-(3,3,3-Trifluoropropyl)-[1,2,4]oxadiazol-3-yl]-6-[3-(2,6-difluorophenyl)-1H-4-pyrazolyl]-imidazo[1,2-a]pyridine], where the note is “Table 1”, the IC50 is below 10 nM.

As for `CS(=O)(=O)c1cccc(N2CCN(c3ncnc4ccc(-c5c[nH]nc5-c5ccc6c(c5)OCO6)cc34)CC2)c1` [Example 964, 6-(3-Benzo[1,3]dioxol-5-yl-1H-pyrazol-4-yl)-4-[4-(3-methylsulfonylphenyl)piperazin-1-yl]quinazoline tri-trifluoroacetate], the IC50 (Table 2) is below 10 nM.

`CC(NC(=O)c1ccc(-c2cnc3ccc(-c4cn[nH]c4)cn23)cc1F)c1ccccn1` (stereo not drawn) [Example 707, N1-[1-(2-Pyridyl)ethyl]-2-fluoro-4-[6-(1H-4-pyrazolyl)-imidazo[1,2-a]pyridin-3-yl]benzamide dihydrochloride]: the IC50 (Table 2) was in the range of 10 to 100 nM.

For the compound `CS(=O)(=O)c1cccc(N2CCN(c3ncnc4ccc(-c5c[nH]nc5-c5ccc(C#N)s5)cc34)CC2)c1` [Example 967, 5-(4-{4-[4-(3-Methylsulfonylphenyl)piperazin-1-yl]quinazolin-6-yl}-1H-pyrazol-3-yl)thiophen-2-carbonitrile tri-trifluoroacetate], under “Table 2”, the IC50 is below 10 nM.

Turning to `C=Cc1ccc(NC(=O)c2ccc(-c3cnc4ccc(-c5cn[nH]c5)cn34)cc2F)nc1` [Example 689, N1-(5-Vinyl-2-pyridyl)-2-fluoro-4-[6-(1H-4-pyrazolyl)-imidazo[1,2-a]pyridin-3-yl]benzamide dihydrochloride], the IC50 (Table 1) is below 10 nM.
